Where “and” joins values, the source holds several entries; their conditions need not be identical. Equal values may be shown once. Entries after “also recorded” stand apart in the source; their conditions may differ. Read-outs that look alike come from different tables or passages of the source. Marks after values point to notes of the source that are not given here.
Tests used:
[1] = system: patients with heavy proteinuria (>1.5 g/day); experiment: 24-hour urinary protein excretion with high-dose candesartan cilexetil (Example 1); format: in vivo, human
Description: The optimal doses of ACEIs and/or ARBs for maximal reduction in urinary protein excretion are not known. Moreover, beneficial effects from ARBs, such as tissue protection owing to a more complete blockade of the RAAS, may be independent of blood pressure-lowering by ARBs. This investigation was designed to evaluate whether increasing the dose of candesartan cilexetil, in subjects already on the FDA's maximum recommended daily doses of 32 mg, would induce a further reduction in 24-hour urinary protein excretion in patients with heavy proteinuria (urinary protein excretion >1.5 g/day; mean 4.4±2 g/day).
(§1) Ten older patients (67±10 years; 80% male) with heavy proteinuria (>1.5 g/day) were started on 16 or 32 mg of candesartan cilexetil daily. Several patients had renal biopsies performed. Eight patients had nephrotic syndrome, four of whom had diabetic nephropathy, two had focal sclerosis, one had membranous nephropathy, and one had postinfectious nephropathy. The two other patients had nephrosclerosis, one being extremely severe and associated with moderate interstitial disease. Most of the patients were already receiving multiple medications for optimal BP control which included the following: calcium channel blockers (CCBs, 80%), diuretics (70%), beta blockers (40%), alpha blockers (40%), and ACEI (40%). Additional concurrent medications included lipid-lowering agents, anti-ischemic drugs and hypoglycemic agents. No effort was made to standardize any class of medications other than ARBs, and no other controls, such as sodium restriction, were instituted as patients were treated using standard office practice procedures.
(§2) After 1-2 months of therapy, the dose of candesartan cilexetil was titrated upwards (at 16-32 mg dose increments) to 96 mg/d, while 24-hour urine samples were obtained to measure protein and creatinine. The candesartan doses were increased independently of the need for BP control. Subsequently, the effect of increased doses of candesartan on 24-hour urinary protein and creatinine excretion, BP, serum creatinine and potassium were serially measured.
(§3) Baseline data was utilized either prospectively or from past patient records collected close to the time of the clinical observation period. […] Thus, no statistical analysis was performed but general trends are noted.

[2] = system: patients with heavy proteinuria (>1.5 g/day); experiment: Blood pressure, serum creatinine, serum potassium and tolerability during candesartan dose titration (Example 1); format: in vivo, human
Description: as §1, §2, §3

[3] = system: patients with dilated aortic roots; experiment: Aortic root size by M-mode echocardiography under ARB therapy (Example 10); format: in vivo, human
From the text: Since regression of the aortic root dilatation on echocardiogram was so unusual, a study was undertaken to evaluate other individuals with aortic root dilatation to determine whether aortic root aneurysms or dilatation could be reduced using ARBs. […] In order to evaluate one group of homogeneous subjects, the following were inclusion criteria: (1) same modality of testing to determine the thickness of the aortic root; (2) same instrument; (3) same interpreter of echocardiogram; (4) subjects needed to be on medication (antihypertensive including ARB or ARB if normotensive); (5) at least 9 months of ARB therapy; and (6) the disease was strictly aneurysm, not CAD or CHF. Applying the above inclusion criteria, a group of 15 subjects was selected for analysis. The group included 13 men and 2 women, aged 66.4±13.3 years and weighing 188.8±29.6 pounds. Aortic root sizes were measured using M-mode echocardiography with a leading-edge-to-leading-edge measurement of the maximal distance between the anterior aortic root wall and the posterior aortic root wall, measured at a level immediately above the cusps at end diastole. The standard deviation for intra-observer error was ±2 mm. Interval changes in aortic root size were measured as initial value-most recent value, where a positive resulting value indicated a corresponding decrease in aortic root size over the interval.

[4] = system: hypertensive patients; settings: cited from earlier work; for BP reductions in comparative short-term trials between ACEI and ARBs: in vivo
[5] = target: T1, AT1 receptor (Homo sapiens, UniProt P30556); settings: cited from earlier work
T1 sequence (P30556 1-359): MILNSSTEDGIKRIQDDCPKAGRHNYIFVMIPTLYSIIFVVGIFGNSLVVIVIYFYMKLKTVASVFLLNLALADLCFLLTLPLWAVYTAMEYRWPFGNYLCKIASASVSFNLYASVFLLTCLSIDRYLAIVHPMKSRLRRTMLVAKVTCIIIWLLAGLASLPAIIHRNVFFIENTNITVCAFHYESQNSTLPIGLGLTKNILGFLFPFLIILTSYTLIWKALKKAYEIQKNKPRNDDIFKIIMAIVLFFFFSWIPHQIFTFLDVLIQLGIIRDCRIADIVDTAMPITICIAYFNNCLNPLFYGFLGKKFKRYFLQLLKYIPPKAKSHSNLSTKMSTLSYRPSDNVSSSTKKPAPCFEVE

[6] = system: subjects with both diabetic and non-diabetic renal disease; experiment: Preliminary unpublished observations: microalbuminuria under supramaximal ARB doses; format: in vivo, human
From the text: Strategies to enhance blockade of the tissue RAAS may result in greater renoprotective effects, by further reducing intraglomerular hydrostatic pressure and glomerular hypertrophy, and providing additional improvements in glomerular permselectivity. […] Utilizing ARBs rather than ACEI was chosen owing to evidence that ARBs provide enhanced tissue RAAS blockade by prevention of the ACE escape phenomenon and thus more complete blockade of angiotensin II (AII) produced by both ACE and non-ACE pathways.

[7] = system: normotensive, proteinuric patients with IgA nephropathy; settings: increasing dose of lisinopril; cited from earlier work
[8] = system: normotensive patients with IgA nephropathy; settings: cited from earlier work
[9] = target: tissue ACE (Homo sapiens, UniProt P12821); settings: compared with other ACEI (e.g., enalapril); due to lipophilic properties; cited from earlier work
Sequence of tissue ACE (P12821 30-1306): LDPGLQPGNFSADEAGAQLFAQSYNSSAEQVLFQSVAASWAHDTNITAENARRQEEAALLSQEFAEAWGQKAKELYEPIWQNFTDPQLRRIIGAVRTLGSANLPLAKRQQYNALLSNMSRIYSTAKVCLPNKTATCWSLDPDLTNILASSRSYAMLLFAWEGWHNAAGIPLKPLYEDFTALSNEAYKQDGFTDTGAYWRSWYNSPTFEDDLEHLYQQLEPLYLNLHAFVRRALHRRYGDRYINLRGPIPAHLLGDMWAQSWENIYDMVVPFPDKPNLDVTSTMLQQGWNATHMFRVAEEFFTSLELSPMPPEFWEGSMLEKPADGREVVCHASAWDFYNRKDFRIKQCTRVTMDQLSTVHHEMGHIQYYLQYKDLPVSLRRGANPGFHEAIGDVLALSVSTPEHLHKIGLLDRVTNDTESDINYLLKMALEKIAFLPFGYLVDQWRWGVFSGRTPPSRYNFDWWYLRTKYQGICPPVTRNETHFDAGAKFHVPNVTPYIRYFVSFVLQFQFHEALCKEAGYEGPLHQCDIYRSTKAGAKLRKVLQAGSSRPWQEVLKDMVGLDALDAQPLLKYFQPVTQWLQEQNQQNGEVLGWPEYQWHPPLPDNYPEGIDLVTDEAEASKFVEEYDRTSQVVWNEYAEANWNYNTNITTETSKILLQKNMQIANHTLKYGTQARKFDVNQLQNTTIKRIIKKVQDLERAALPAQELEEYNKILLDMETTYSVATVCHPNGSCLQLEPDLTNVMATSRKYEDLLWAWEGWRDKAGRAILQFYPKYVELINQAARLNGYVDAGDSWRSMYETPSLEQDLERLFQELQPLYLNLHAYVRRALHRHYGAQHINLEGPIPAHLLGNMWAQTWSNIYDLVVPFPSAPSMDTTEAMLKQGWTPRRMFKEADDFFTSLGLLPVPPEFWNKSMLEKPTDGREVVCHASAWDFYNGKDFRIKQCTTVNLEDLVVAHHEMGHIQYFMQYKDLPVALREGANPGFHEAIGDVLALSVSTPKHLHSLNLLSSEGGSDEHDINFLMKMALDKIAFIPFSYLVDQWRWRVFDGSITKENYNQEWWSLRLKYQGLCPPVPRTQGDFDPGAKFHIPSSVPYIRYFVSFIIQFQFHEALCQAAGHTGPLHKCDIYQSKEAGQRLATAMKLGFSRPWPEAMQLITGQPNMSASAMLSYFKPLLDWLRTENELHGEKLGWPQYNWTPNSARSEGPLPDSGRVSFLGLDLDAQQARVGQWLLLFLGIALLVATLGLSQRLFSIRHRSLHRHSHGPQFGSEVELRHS

**Q.** With `CCOc1nc2cccc(C(=O)OC(C)OC(=O)OC3CCCCC3)c2n1Cc1ccc(-c2ccccc2-c2nnn[nH]2)cc1` (stereo not drawn) [Candesartan cilexetil, candesartan cilexetil] as the compound, how does the “Protein Excretion, Mean” value ([1]; 16 mg/day column, mean of N=4 (includes one losartan 50 mg and one irbesartan 150 mg value)) read?
**A.** 2.8 g/day

**Q.** And the “Protein Excretion, Mean” value ([1]; 32 mg/day column, mean of N=10 (includes one irbesartan 300 mg value))?
**A.** 2.7 g/day

**Q.** What about the “Protein Excretion (24-hour urinary protein excretion rate)” value ([1]; candesartan cilexetil 16 mg/day, individual patients) of the same compound?
**A.** 3.2 g/day and 6.4 g/day

**Q.** What about the “Protein Excretion (24-hour urinary protein excretion rate)” value ([1]; candesartan cilexetil 32 mg/day, individual patients) of the same compound?
**A.** 1.1 g/day and 2.0 g/day and 0.8 g/day and 4.9 g/day and 3.3 g/day and 2.7 g/day and 6.4 g/day and 4.6 g/day and 1.2 g/day

**Q.** And the “Protein Excretion (24-hour urinary protein excretion rate)” value ([1]; candesartan cilexetil 48 mg/day, individual patients)?
**A.** 0.9 g/day and 0.2 g/day (2×) and 2.6 g/day and 1.7 g/day and 2.9 g/day and 5.8 g/day and 1.2 g/day

**Q.** What about the “Protein Excretion, Mean” value ([1]; candesartan cilexetil 48 mg/day, mean of N=8) of the same compound?
**A.** 1.9 g/day

**Q.** And the “Protein Excretion (24-hour urinary protein excretion rate)” value ([1]; candesartan cilexetil 64 mg/day, individual patients)?
**A.** 1.7 g/day and 1.1 g/day and 0.4 g/day and 0.2 g/day and 1.3 g/day and 3.0 g/day and 4.7 g/day and 0.7 g/day

**Q.** What about the “Protein Excretion, Mean” value ([1]; candesartan cilexetil 64 mg/day, mean of N=8) of the same compound?
**A.** 1.6 g/day

**Q.** What about the “Protein Excretion (24-hour urinary protein excretion rate)” value ([1]; candesartan cilexetil 80 mg/day, individual patients) of the same compound?
**A.** 0.9 g/day and 0.5 g/day and 0.3 g/day and 1.6 g/day and 3.4 g/day and 1.4 g/day and 2.4 g/day and 0.6 g/day

**Q.** And the “Protein Excretion, Mean” value ([1]; candesartan cilexetil 80 mg/day, mean of N=8)?
**A.** 1.4 g/day

**Q.** And the “Protein Excretion (24-hour urinary protein excretion rate)” value ([1]; candesartan cilexetil 96 mg/day, individual patients)?
**A.** 0.6 g/day and 0.2 g/day and 1.8 g/day and 2.3 g/day and 0.7 g/day

**Q.** What about the “Protein Excretion, Mean” value ([1]; candesartan cilexetil 96 mg/day, mean of N=5) of the same compound?
**A.** 1.1 g/day

**Q.** And the “Effect on 24-hour urinary protein excretion beyond the recommended maximum dose” value ([1]; dose extended beyond 32 mg/d)?
**A.** progressive reductions in 24-hour urinary protein excretion; also recorded: further reductions in urinary protein excretion in all subjects

**Q.** What about the Safety and tolerability ([2]; doses between 32 and 96 mg) of the same compound?
**A.** safe, well-tolerated

**Q.** With `CCOc1nc2cccc(C(=O)O)c2n1Cc1ccc(-c2ccccc2-c2nnn[nH]2)cc1` [candesartan] as the compound, how does the “Interval change in aortic root size (initial value minus most recent value)” value ([3]; one hypertensive subject, 128 mg/d) read?
**A.** 8 mm

**Q.** And the “Interval change in aortic root size (initial value minus most recent value)” value ([3]; one normotensive subject, 64 mg/d)?
**A.** 12 mm

**Q.** And the “Decrease in aortic root size” value ([3]; ten of 15 subjects, at least 9 months of ARB therapy)?
**A.** more than 2 mm

**Q.** And the Tolerability ([2]; 96 mg/d)?
**A.** well tolerated, metabolically neutral

**Q.** What about the “Increase in serum creatinine” value ([2]; at the higher doses of candesartan, attributable primarily to two of the ten patients) of the same compound?
**A.** 0.5 to 0.7 mg/dL

**Q.** And the Serum potassium ([2]; throughout the dosing range of candesartan)?
**A.** 4.3 to 4.5 mmol/L

**Q.** With `CCOC(=O)[C@H](CCc1ccccc1)N[C@@H](C)C(=O)N1CCC[C@H]1C(=O)O` [enalapril] as the compound, how does the “BP reductions in comparative short-term trials between ACEI and ARBs” value [4] read?
**A.** equivalent BP reductions

**Q.** What does the source list for `CCCCc1ncc(/C=C(\Cc2cccs2)C(=O)O)n1Cc1ccc(C(=O)O)cc1` [eprosartan]?
**A.** Affinity for the AT1 receptor [5]: lower affinity; Type of antagonism at the AT1 receptor [5]: surmountable

**Q.** What does the source list for `CCCCC1=NC2(CCCC2)C(=O)N1Cc1ccc(-c2ccccc2-c2nnn[nH]2)cc1` [irbesartan]?
**A.** Protein Excretion (24-hour urinary protein excretion rate) ([1]; irbesartan 150 mg, patient 7): 0.5** g/day; Protein Excretion (24-hour urinary protein excretion rate) ([1]; irbesartan 300 mg, patient 6): 0.4^§ g/day; BP reductions in comparative short-term trials between ACEI and ARBs [4]: equivalent BP reductions; Affinity for the AT1 receptor [5]: high affinity; Type of antagonism at the AT1 receptor [5]: insurmountable; Effect on microalbuminuria [6]: additional reductions in microalbuminuria

**Q.** Which results are given for `NCCCC[C@H](N[C@@H](CCc1ccccc1)C(=O)O)C(=O)N1CCC[C@H]1C(=O)O` [lisinopril]?
**A.** Renal protective effect of increasing the dose [7]: additional renal protective effects, independent of any BP reductions; BP reductions in comparative short-term trials between ACEI and ARBs [4]: equivalent BP reductions

**Q.** Which “Protein Excretion (24-hour urinary protein excretion rate)” value ([1]; losartan 50 mg, patient 6) does the source give for `CCCCc1nc(Cl)c(CO)n1Cc1ccc(-c2ccccc2-c2nn[nH]n2)cc1` [losartan] here?
**A.** 1.1^+ g/day

**Q.** What about the “BP reductions compared with ACEI” value ([4]; a few studies) of the same compound?
**A.** smaller BP reductions

**Q.** What about the “BP reductions in comparative short-term trials between ACEI and ARBs” value [4] of the same compound?
**A.** equivalent BP reductions

**Q.** And the “Antihypertensive response to add-on therapy” value ([4]; losartan 25-50 mg/d added to existing ramipril 2.5-5 mg/d, four-week study of 30 hypertensives)?
**A.** enhanced

**Q.** And the “Change of urinary protein excretion on monotherapy” value ([8]; either drug as monotherapy, ARB = losartan)?
**A.** −27%

**Q.** And the “Reduction of urinary protein excretion on combined ACEI and ARB therapy” value ([8]; losartan 50 mg/day added to a moderate dose of an ACEI)?
**A.** 69%

**Q.** And the “Type of antagonism at the AT1 receptor” value [5]?
**A.** surmountable

**Q.** And the “Type of antagonism at the AT1 receptor” value ([5]; listed as Losartan)?
**A.** competitive antagonist

**Q.** And the Effect on microalbuminuria [6]?
**A.** additional reductions in microalbuminuria

**Q.** For `CCOC(=O)[C@H](CCc1ccccc1)N[C@@H](C)C(=O)N1Cc2ccccc2C[C@H]1C(=O)O` [quinapril], which “Ability to block tissue ACE activity” value [9] is on record?
**A.** better able to block tissue ACE activity

**Q.** Which “Additive antihypertensive response to add-on therapy” value ([4]; ACEI (ramipril) added to existing ARB (losartan) therapy) does the source give for `CCOC(=O)[C@H](CCc1ccccc1)N[C@@H](C)C(=O)N1[C@H](C(=O)O)C[C@@H]2CCC[C@@H]21` [ramipril] here?
**A.** small and not significant

**Q.** With `CCCc1nc2c(C)cc(-c3nc4ccccc4n3C)cc2n1Cc1ccc(-c2ccccc2C(=O)O)cc1` [telmisartan] as the compound, how does the “BP reductions in comparative short-term trials between ACEI and ARBs” value [4] read?
**A.** equivalent BP reductions

**Q.** With `CCCCC(=O)N(Cc1ccc(-c2ccccc2-c2nnn[nH]2)cc1)[C@H](C(=O)O)C(C)C` [valsartan] as the compound, how does the “BP reductions in comparative short-term trials between ACEI and ARBs” value [4] read?
**A.** equivalent BP reductions

**Q.** What about the Effect on microalbuminuria [6] of the same compound?
**A.** additional reductions in microalbuminuria

— patent US20030078190A1 (priority 2001, published 2003)
